The subject of test [1] is primary human fibroblasts derived from IPF patients (LL29 cells). Put plainly: Inhibition of fibrosis: TGF-β1-treated primary human fibroblasts from IPF patients (LL29), αSMA staining. The class given is cell-based. To be noted: Fibroblast, 96 h, TGF-β1 20 ng/mL, 4 days, % αSMA-positive cells. An excerpt: The above synthesized compounds were screened using primary human fibroblasts (derived from IPF patients) treated with TGF-β1 to determine their ability to inhibit the fibrotic process.
Primary human fibroblasts derived from IPF patients (LL29 cells) [^1Xiaoqiu Liu, et. al., “Fibrotic Lung Fibroblasts Show Blunted Inhibition by cAMP Due to Deficient cAMP Response Element-Binding Protein Phosphorylation”, Journal of Pharmacology and Experimental Therapeutics (2005), 315(2), 678-687; ^2Watts, K. L., et. al., “RhoA signaling modulates cyclin D1 expression in human lung fibroblasts; implications for idiopathic pulmonary fibrosis”, Respiratory Research (2006), 7(1), 88] were obtained from American Type Culture Collection (ATCC) and expanded in F12 medium supplemented with 15% Fetal Bovine Serum and Penicillin/Streptomycin.
Each compound was dissolved in DMSO as a 10 mM stock and used to prepare compound source plates. Serial dilution (1:2, 11-point dose-response curves from 10 μM to 1.87 nM) and compound transfer was performed using the ECHO 550 (Labcyte, Sunnyvale, Calif.) into 384-well clear bottom assay plates (Greiner Bio-One) with appropriate DMSO backfill for a final DMSO concentration of 0.1%. LL29 cells were plated at 1,500 cells/well in 80 μl/well F12 medium supplemented with 1% Fetal Bovine Serum. One hour after addition of the cells, TGF-β1 (Peprotech; 20 ng/mL) was added to the plates to induce fibrosis (ref 1 and 2 above). Wells treated with TGF-β1 and containing DMSO were used as controls. Cells were incubated at 37° C. and 5% CO2 for 4 days. Following incubation for 4 days, SYTOX green nucleic acid stain (Life Technologies [Thermo Fisher Scientific]) was added to the wells at a final concentration of 1 uM and incubated at room temperature for 30 min. Cells were then fixed using 4% formaldehyde (Electron Microscopy Sciences), washed 3 times with PBS followed by blocking and permeabilization using 3% Bovine Serum Albumin (BSA; Sigma) and 0.3% Triton X-100 (Sigma) in PBS. Cells were then stained with antibody specific to α-smooth muscle actin (αSMA; Abcam) (ref 1 and 2 above) in 3% Bovine Serum Albumin (BSA; Sigma) and 0.3% Triton X-100 (Sigma) in PBS, and incubated overnight at 4° C. Cells were then washed 3 times with PBS, followed by incubation with Alexa Flor-647 conjugated secondary antibody (Life Technologies [Thermo Fisher Scientific]) and DAPI at room temperature for 1 hour. Cells were then washed 3 times with PBS and plates were sealed for imaging. αSMA staining was imaged by excitation at 630 nm and emission at 665 nm and quantified using the Compartmental Analysis program on the CellInsight CX5 (Thermo Scientific). Dead or apoptotic cells were excluded from analysis based on positive SYTOX green staining. % of total cells positive for αSMA were counted in each well and normalized to the average of 11 wells treated with TGF-β1 on the same plate using Dotmatics' Studies Software. The normalized averages (fold change over untreated) of 3 replicate wells for each compound concentration were used to create dose-responses curves and EC50 values were calculated using non-linear regression curve fit in the Dotmatics' Studies Software. The EC50 values are reported.

Test [2] relates to Wnt activity (Sp5-Luc reporter, SW480 colon carcinoma cells). Put plainly: Screening assay for Wnt activity: Sp5-Luc reporter gene assay in SW480 cells. It counts as cell-based. To be noted: Homo sapiens, 42 h incubation, luminescence. The source says:
The screening assay for Wnt activity is described as follows. Reporter cell lines can be generated by stably transducing cancer cell lines (e.g., colon cancer) or primary cells (e.g., IEC-6 intestinal cells) with a lentiviral construct that includes a Wnt-responsive promoter driving expression of the firefly luciferase gene.
SW480 colon carcinoma cells were transduced with a lentiviral vector expressing luciferase with a human Sp5 promoter consisting of a sequence of eight TCF/LEF binding sites. SW480 cells stably expressing the Sp5-Luc reporter gene and a hygromycin resistance gene were selected by treatment with 150 μg/ml of hygromycin for 7 days. These stably transduced SW480 cells were expanded in cell culture and used for all further screening activities. For Sp5-Luc reporter gene assays, the cells were plated at 10,000 cells/well in 96-well plates with growth medium containing 10% fetal calf serum and incubated overnight at 37° C. and 5% CO2. Each compound was dissolved in DMSO as a 10 mM stock in standard j-vials and used to prepare compound source plates in dose-response format with 3-fold serial dilutions and a 10 mM top concentration. Compound transfer from serially diluted source plates to assay plates containing the cells was accomplished using a pintool (Multimek 96, Beckman equipped with V&P Scientific FP1S50H pins) based liquid handling protocol. This protocol used a slotted pin to transfer 50 nl of compound from a source plate well to an assay plate well containing 50 μl of cells in growth medium. […] Control wells received 50 nl of DMSO treatment for normalization and calculating IC50 values. The treated cells were incubated at 37° C. and 5% CO2 for an additional forty-two hours. Following incubation, the growth medium was removed and 50 μl of BrightGlo luminescence reagent (Promega) was added to each well of the 96-well assay plates. The plates were placed on an orbital shaker for 5 min and then luminescence was quantified on the Victor3 (Perkin Elmer) plate reader. Readings were normalized to DMSO only treated cells, and normalized activities were utilized for IC50 calculations using the dose-response log (inhibitor) vs. response-variable slope (four parameters) nonlinear regression feature available in GraphPad Prism 5.0 or 6.0.

Molecules are shown by their SMILES.

Take `Fc1ccc(-c2nccc3[nH]c(-c4n[nH]c5ccc(-c6cncc(CN7CCCC7)c6)cc45)nc23)cc1` [Compound 40, 4-(4-Fluorophenyl)-2-(5-(5-(pyrrolidin-1-ylmethyl)pyridin-3-yl)-1H-indazol-3-yl)-1H-imidazo[4,5-c]pyridine]: the EC50 in test [1] is 0.024 µM. The compound also returned an IC50 in test [2] of 0.075 µM.
For the compound `O=C(Nc1cncc(-c2ccc3[nH]nc(-c4nc5c(-c6ccc(F)cc6)nccc5[nH]4)c3c2)c1)C1CCC1` [Compound 46, N-(5-(3-(4-(4-Fluorophenyl)-1H-imidazo[4,5-c]pyridin-2-yl)-1H-indazol-5-yl)pyridin-3-yl)cyclobutanecarboxamide], the response in test [1] was half-maximal at 0.009 µM (EC50). In addition, the concentration for half-maximal inhibition (IC50) in test [2] is 0.01 µM.
`Fc1ccc(-c2nccc3[nH]c(-c4n[nH]c5ccc(-c6cncnc6)cc45)nc23)cc1` [Compound 52, 4-(4-Fluorophenyl)-2-(5-(pyrimidin-5-yl)-1H-indazol-3-yl)-1H-imidazo[4,5-c]pyridine]: the EC50 in test [1] came out at 0.539 µM. Moreover, in test [2], the concentration for half-maximal inhibition (IC50) was 0.025 µM.
As for `Nc1cncc(-c2ccc3[nH]nc(-c4nc5c(-c6ccccc6F)nccc5[nH]4)c3c2)c1` [Compound 55, 5-(3-(4-(2-Fluorophenyl)-1H-imidazo[4,5-c]pyridin-2-yl)-1H-indazol-5-yl)pyridin-3-amine], in test [1], a half-maximal effect (EC50) was put at 0.017 µM. The same compound had a half-inhibitory concentration (IC50) in test [2] of 0.0041 µM.
In test [1], `CN(C)c1cncc(-c2ccc3[nH]nc(-c4nc5c(-c6ccccc6F)nccc5[nH]4)c3c2)c1` [Compound 59, 5-(3-(4-(2-Fluorophenyl)-1H-imidazo[4,5-c]pyridin-2-yl)-1H-indazol-5-yl)-N,N-dimethylpyridin-3-amine] gave a half-maximal effective concentration (EC50) of 0.018 µM. The compound further showed a half-inhibitory concentration (IC50) in test [2] of 0.0094 µM.
`CC(C)C(=O)Nc1cncc(-c2ccc3[nH]nc(-c4nc5c(-c6ccccc6F)nccc5[nH]4)c3c2)c1` [Compound 61, N-(5-(3-(4-(2-Fluorophenyl)-1H-imidazo[4,5-c]pyridin-2-yl)-1H-indazol-5-yl)pyridin-3-yl)isobutyramide]: it took 0.079 µM to reach a half-maximal effect in test [1] (EC50). Also, half-maximal inhibition in test [2] (IC50) required 0.005 µM.
As to `CC(C)(C)CC(=O)Nc1cncc(-c2ccc3[nH]nc(-c4nc5c(-c6ccccc6F)nccc5[nH]4)c3c2)c1` [Compound 68, N-(5-(3-(4-(2-Fluorophenyl)-1H-imidazo[4,5-c]pyridin-2-yl)-1H-indazol-5-yl)pyridin-3-yl)-3,3-dimethylbutanamide], the concentration for a half-maximal effect (EC50) in test [1] was determined as 0.009 µM. Further, it took 0.02 µM to reach half-maximal inhibition in test [2] (IC50).
In turn, `CCCC(=O)Nc1cncc(-c2ccc3[nH]nc(-c4nc5c(-c6ccccc6F)nccc5[nH]4)c3c2)c1` [Compound 69, N-(5-(3-(4-(2-Fluorophenyl)-1H-imidazo[4,5-c]pyridin-2-yl)-1H-indazol-5-yl)pyridin-3-yl)butyramide] displayed an EC50 in test [1] of 0.074 µM. Besides, the IC50 in test [2] amounted to 0.005 µM.
Regarding `O=C(Nc1cncc(-c2ccc3[nH]nc(-c4nc5c(-c6ccccc6F)nccc5[nH]4)c3c2)c1)C1CCCC1` [Compound 73, N-(5-(3-(4-(2-Fluorophenyl)-1H-imidazo[4,5-c]pyridin-2-yl)-1H-indazol-5-yl)pyridin-3-yl)cyclopentanecarboxamide], the half-maximal effective concentration (EC50) in test [1] turned out to be 0.009 µM. The compound further had an IC50 in test [2] of 0.008 µM.
Consider `c1cncc(-c2ccc3[nH]nc(-c4nc5c(-c6cccnc6)nccc5[nH]4)c3c2)c1` [Compound 82, 4-(Pyridin-3-yl)-2-(5-(pyridin-3-yl)-1H-indazol-3-yl)-1H-imidazo[4,5-c]pyridine], for which the EC50 in test [1] was 0.009 µM. In test [2], this compound came in with an IC50 of 0.008 µM.
The corresponding values for `CC(C)(C)C(=O)Nc1cncc(-c2ccc3[nH]nc(-c4nc5c(-c6cccnc6)nccc5[nH]4)c3c2)c1` [Compound 86, N-(5-(3-(4-(Pyridin-3-yl)-1H-imidazo[4,5-c]pyridin-2-yl)-1H-indazol-5-yl)pyridin-3-yl)pivalamide] are 0.993 µM and 0.0179 µM.
